Measurements from US20240336657A1, “G-ALPHA-S PEPTIDE INHIBITORS AND USES THEREOF” (The Regents of the University of California, priority 2021, published 2024).
Positions of bridges follow the written chain, without caps; N, C: chain ends. Non-standard residues stand in square brackets, D forms with d. Residues, ends and D or L forms follow the SMILES beside them.

How the values were obtained:
[1] = target: T1, Gαs/Gβγ (Homo sapiens, UniProt P63092); test: BRET2 based Gα Gβγ interaction assay in HEK293 cells (β2AR, isoproterenol); format: cell-based; settings: pretreated 25 μM, 16 hours, 10 nM isoproterenol
T1 construct: expressed in transfected cells; host or cells: HEK293 cells
Source text: We next tested GD20-F10L in HEK 293 cells overexpressing both β2AR and Gαs/Gβγ. Rluc8 was inserted within a flexible loop region between the αB-αC helices of Gαs (FIG. 23J) and GFP2 was inserted at the N-terminus of Gγ2 to capture Gαβγ heterotrimer interaction. A decrease in the bioluminescence resonance energy transfer (BRET2) signal between labeled G protein subunits can detect Gαβγ dissociation (FIG. 21C) in live cells (Olsen et al., 2020). We examined Gαβγ trimer dissociation elicited by the GPCR agonist at various concentrations of cyclic peptides by monitoring the net BRET2 signal. In cells that were transiently transfected with a Gαs-coupled β2-adrenergic receptor (β2AR), GαsShort_Rluc8, […], and Gγ-GFP2, ISO application stimulated a basal net BRET response. […] This effect was GD20-F10L dose dependent (FIGS. 21D-21E). […] To assess the specificity of GD20-F10L at the G protein level, we tested it against the Gαi/Gβγ interaction. […]
8 hours after plating in 96-well assay plates, media was replaced with 100 μL of cyclic peptide dilutions in DMEM with 1% dialyzed FBS. […] Plates were then read in a TECAN Spark 20 M plate reader with 395 nm (RLuc8-coelenterazine 400a) and 510 nm (GFP2) emission filters, at integration times of 1 s per well. Plates were read serially six times, and measurements from the fourth read were used in all analyses. […]

[2] = target: Gαs (Homo sapiens, UniProt P63092); test: GTPγS binding assay ([35S]GTPγS); format: biochemical; set-up: made in house; host or cells: Escherichia coli BL21(DE3)
Procedure: Gα proteins were diluted to 10 μM with dilution buffer (20 mM HEPES 7.5, 150 mM NaCl, 1 mM MgCl2, 2 mM DTT, and 20 μM GDP) and incubated with 5× stocks of cyclic peptides at room temperature for 2 hours. GTPγS binding was initiated by mixing with the reaction buffer at room temperature (50 nM [35S]GTPγS and 100 μM GTPγS in dilution buffer) at room temperature. At various time points, 10 μL of the sample was removed and mixed with 390 μL of ice-cold wash buffer (20 mM HEPES 7.5, 150 mM NaCl, 20 mM MgCl2). The mixture was filtered through a mixed cellulose membrane (25 mm, 0.22 μm). The membrane was washed by ice-cold wash buffer (500 μL×3), put in a 6-mL plastic vial and air-dried (room temperature 1.5 h). 5 mL of CytoScint-ES Liquid Scintillation Cocktail (MP Biomedicals) was added to each vial. After incubation overnight at room temperature, the vial was used for liquid scintillation counting with a LS 6500 Multi-Purpose Scintillation Counter. A standard curve was generated using [35S]GTPγS. The radioactive activity (Counts per minute) of the samples were converted to the GTPγS concentration. The GTPγS binding curves were fitted by the software GraphPad Prism using the following equation to calculate the apparent GTPγS binding rates (kapp): […]
in which “Y” is the concentration of GTPγS that bound to Gα protein at time “X” (minutes).

[3] = target: GppNHp-bound Gαs (Homo sapiens, UniProt P63092); test: Bio-layer interferometry (BLI) binding kinetics; set-up: hexahistidine (N, cleaved yes); made in house; host or cells: Escherichia coli BL21(DE3)
Procedure: BLI experiments were performed using an OctetRED384 instrument from ForteBio. All experiments were performed at 25° C. using BLI buffer (10 mM HEPES pH 7.4, 150 mM NaCl, 1 mM MgCl2, 0.05% Tween-20, 0.1% DMSO, 0.2 mM GppNHp or GDP). Cyclic peptides were diluted to a series of concentrations in BLI buffer plus 10 μM Biotin. Assays were conducted in Greiner 384well, black, flat bottom polypropylene plates containing the protein solutions, BLI buffer plus 10 μM Biotin for dissociation, and serial dilutions of cyclic peptides to be tested.
Biotinylated proteins were immobilized on Streptavidin biosensors by dipping sensors into plate wells containing protein solutions at a concentration of 100-150 nM. Protein loading is around 2-3 nm. Sensors loaded with proteins were moved and dipped into wells with BLI buffer plus 10 μM Biotin to block unlabeled Streptavidin. Association-dissociation cycles of compounds were started by moving and dipping sensors to cyclic peptides dilutions and BLI buffer plus 10 μM Biotin wells alternatively. Association and dissociation times were carefully determined to ensure full association and dissociation.
Raw kinetic data collected were processed with the Data Analysis software provided by the manufacturer using single reference subtraction in which buffer-only reference was subtracted (For GN13 analysis). Because GD20 analogs have a low level of background binding, we used a double reference subtraction (buffer-only reference and non-protein-loading reference) method to calculate their kinetics values. The resulting data were analyzed based on a 1:1 binding model from which kon and koff values were obtained and then Kd values were calculated.

T1 sequence (P63092 1-380 isoform P63092-2): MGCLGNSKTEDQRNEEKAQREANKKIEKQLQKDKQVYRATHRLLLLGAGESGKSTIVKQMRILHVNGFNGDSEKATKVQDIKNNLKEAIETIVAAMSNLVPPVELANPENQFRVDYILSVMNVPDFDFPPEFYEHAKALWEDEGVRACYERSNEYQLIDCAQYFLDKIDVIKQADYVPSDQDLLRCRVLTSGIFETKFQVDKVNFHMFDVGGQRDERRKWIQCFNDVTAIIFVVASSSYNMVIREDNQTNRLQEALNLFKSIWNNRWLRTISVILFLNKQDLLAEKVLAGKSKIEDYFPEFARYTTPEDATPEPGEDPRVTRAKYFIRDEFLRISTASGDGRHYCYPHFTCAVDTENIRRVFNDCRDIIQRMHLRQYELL
Gαs, sequence (P63092 1-380 isoform P63092-2): as above

Compound | net BRET2 signal between Gαs and Gγ after isoproterenol [1] | effect on the apparent rate of GTPγS binding (kapp) to Gαs [2] | koff ([3]; GppNHp/Gαs) | kon ([3]; GppNHp/Gαs) | Kd ([3]; immobilized GppNHp-bound Gαs)
CC[C@H](C)[C@@H]1NC(=O)[C@H](CC(C)C)NC(=O)[C@@H](Cc2ccc(O)cc2)NC(=O)CSC[C@@H](C(=O)NCC(N)=O)NC(=O)[C@@H]2CCCN2C(=O)[C@H](CC(C)C)NC(=O)[C@H](CC(N)=O)NC(=O)[C@H](CC(C)C)NC(=O)[C@H](C)NC(=O)[C@H](Cc2c[nH]c3ccccc23)NC(=O)[C@H](CCC(N)=O)NC(=O)[C@H](CCCNC(=N)N)NC(=O)[C@H](Cc2ccccc2)NC(=O)[C@H]([C@@H](C)O)NC1=O [GD20-F10L] ({CH2CO}-[dY]LITFRQWALNLPCG-NH2; thioether N-14) | induced a greater net BRET2 signal |  |  |  | 
CC[C@H](C)[C@@H]1NC(=O)[C@H](C)NC(=O)[C@H](Cc2ccc(O)cc2)NC(=O)[C@H](C(C)C)NC(=O)[C@H](CO)NC(=O)[C@H](CCC(=O)O)NC(=O)[C@H](Cc2ccccc2)NC(=O)[C@@H](Cc2ccc(O)cc2)NC(=O)CSC[C@@H](C(=O)NCC(N)=O)NC(=O)[C@H](CC(C)C)NC(=O)[C@H]([C@@H](C)O)NC(=O)CNC(=O)[C@H](Cc2c[nH]c3ccccc23)NC1=O [GN13] ({CH2CO}-[dY]FESVYAIWGTLCG-NH2; thioether N-13) |  | increased | 0.0513 s⁻¹ | 271000 M⁻¹ s⁻¹ | 190 ± 20 nM
